{"source": "patent US20070129252A1", "about": "“2-Halo-6-alkylphenyl-substituted spirocyclic tetramic acid derivatives” (BAYER CROPSCIENCE AKTIENGESELLSCHAFT, priority 2003, published 2007)", "assay_type_in_all_cases": "in vivo", "key": {"Meloidogyne incognita": {"test_system": "Meloidogyne incognita", "test": "Meloidogyne test", "conditions": "20 ppm; formation of galls on lettuce roots", "description": "To produce a suitable preparation of active compound, 1 part by weight of active compound is mixed with the stated amounts of solvent and emulsifier, and the concentrate is diluted with water to the desired concentration.\nVessels are filled with sand, solution of active compound, Meloidogyne incognita egg/larvae suspension and lettuce seeds. The lettuce seeds germinate and the plants develop. On the roots, galls develop.\nAfter the desired period of time, the nematicidal action is determined in % by the formation of galls. 100% means that no galls have been found; 0% means that the number of galls on the treated plants corresponds to that of the untreated control."}, "Myzus persicae [1]": {"test_system": "Myzus persicae", "test": "Myzus test (spray treatment)", "conditions": "100 g/ha, Chinese cabbage discs", "description": "Myzus Test (Spray Treatment)\n(§1) To produce a suitable preparation of active compound, 1 part by weight of active compound is mixed with the stated amounts of solvent and emulsifier, and the concentrate is diluted with emulsifier-containing water to the desired concentration.\nDiscs of Chinese cabbage (Brassica pekinensis), which are infested by all stages of the green peach aphid (Myzus persicae), are sprayed with a preparation of active compound of the desired concentration.\nAfter the desired period of time, the effect in % is determined. 100% means that all aphids have been killed; 0% means that none of the aphids have been killed."}, "Avena sativa [2]": {"test_system": "Avena sativa", "test": "Herbicidal post-emergence action (Example M)", "conditions": "greenhouse, 320 g of a.i./ha, about 3 weeks", "description": "(§2) Herbicidal Post-Emergence Action\n(§3) Seeds of monocotyledonous and dicotyledonous weed and crop plants are placed into sandy loam in wood fibre pots, covered with soil and cultivated in a greenhouse under good growth conditions. 2-3 weeks after sowing, the test plants are treated at the one-leaf stage. The test compounds, formulated as wettable powders (WP), are, in various dosages with a water application rate of 600 l/ha (converted), with 0.2% of wetting agent added, sprayed onto the green parts of the plants. After the test plants were kept in the greenhouse under optimum growth conditions for about 3 weeks, the effect of the preparations is rated visually in comparison to untreated controls (herbicidal effect in percent (%): 100% effect=the plants have died, 0% effect=like control plants)."}, "Lolium [3]": {"test_system": "Lolium", "test": "Herbicidal post-emergence action (Example M)", "conditions": "greenhouse, 320 g of a.i./ha, about 3 weeks", "description": "as §2, §3"}, "Setaria [4]": {"test_system": "Setaria", "test": "Herbicidal post-emergence action (Example M)", "conditions": "greenhouse, 320 g of a.i./ha, about 3 weeks", "description": "as §2, §3"}, "Myzus persicae [5]": {"test_system": "Myzus persicae", "test": "Myzus test (dip treatment)", "conditions": "cabbage leaves", "description": "Myzus Test (Dip Treatment)\nas §1\nCabbage leaves (Brassica oleracea), which are heavily infested by the green peach aphid Myzus persicae), are treated by being dipped into the preparation of active compound of the desired concentration.\n(§4) After the desired period of time, the kill in % is determined. 100% means that all aphids have been killed; 0% means that none of the aphids have been killed."}, "Sinapis": {"test_system": "Sinapis", "test": "Herbicidal pre-emergence action (Example L)", "conditions": "greenhouse, 320 g of a.i./ha, 3 weeks", "excerpt": "(§5) Herbicidal Pre-Emergence Action\n(§6) Seeds of monocotyledonous and dicotyledonous weed and crop plants are placed into sandy loam in wood fibre pots and covered with soil. The test compounds, formulated in the form of wettable powders (WP), are then, in various dosages as aqueous suspension with a water application rate of 600 l/ha (converted), with 0.2% of wetting agent added, applied to the surface of the covering soil.\n(§7) After the treatment, the pots are placed in a greenhouse and kept under good growth conditions for the test plants. The visual assessment of the emergence damage on the test plants is carried out after a trial period of 3 weeks by comparison with untreated controls (herbicidal effect in percent (%): 100% effect=the plants have died, 0% effect=like control plants)."}, "Avena sativa [6]": {"test_system": "Avena sativa", "test": "Herbicidal pre-emergence action (Example L)", "conditions": "greenhouse, 320 g of a.i./ha, 3 weeks", "excerpt": "as §5, §6, §7"}, "Stellaria": {"test_system": "Stellaria", "test": "Herbicidal pre-emergence action (Example L)", "conditions": "greenhouse, 320 g of a.i./ha, 3 weeks", "excerpt": "as §5, §6, §7"}, "Lolium [7]": {"test_system": "Lolium", "test": "Herbicidal pre-emergence action (Example L)", "conditions": "greenhouse, 320 g of a.i./ha, 3 weeks", "excerpt": "as §5, §6, §7"}, "Setaria [8]": {"test_system": "Setaria", "test": "Herbicidal pre-emergence action (Example L)", "conditions": "greenhouse, 320 g of a.i./ha, 3 weeks", "excerpt": "as §5, §6, §7"}, "Tetranychus urticae": {"test_system": "Tetranychus urticae", "test": "Tetranychus test (OP-resistant/dip treatment)", "conditions": "100 ppm; dip treatment; bean plants (Table H)", "description": "Tetranychus Test (OP-Resistant/Dip Treatment)\nas §1\nBean plants (Phaseolus vulgaris), which are heavily infested by all stages of the greenhouse red spider mite (Tetranychus urticae), are dipped into a preparation of active compound of the desired concentration.\nAfter the desired period of time, the activity in % is determined. 100% means that all spider mites have been killed; 0% means that none of the spider mites have been killed."}, "sugarbeets [9]": {"test_system": "sugarbeets", "test": "Pre-emergence test (Example K)", "conditions": "greenhouse, 30 g of a.i./ha, after three weeks", "description": "(§8) To produce a suitable preparation of active compound, 1 part by weight of active compound is mixed with the stated amount of solvent, the stated amount of emulsifier is added and the concentrate is diluted with water to the desired concentration.\n(§9) Seeds of the test plants are sown in normal soil. After about 24 hours, the soil is sprayed with the preparation of active compound such that the particular amounts of active compound desired are applied per unit area. The concentration of the spray liquor is chosen such that the particular amounts of active compound desired are applied in 1000 l of water/ha.\n(§10) After three weeks, the degree of damage to the plants is rated in % damage in comparison to the development of the untreated control.\n(§11) 0%=no effect (like untreated control)"}, "Echinochloa [10]": {"test_system": "Echinochloa", "test": "Pre-emergence test (Example K)", "conditions": "greenhouse, 30 g of a.i./ha, after three weeks", "description": "as §8, §9, §10, §11"}, "Lolium [11]": {"test_system": "Lolium", "test": "Pre-emergence test (Example K)", "conditions": "greenhouse, 30 g of a.i./ha, after three weeks", "description": "as §8, §9, §10, §11"}, "Setaria [12]": {"test_system": "Setaria", "test": "Pre-emergence test (Example K)", "conditions": "greenhouse, 30 g of a.i./ha, after three weeks", "description": "as §8, §9, §10, §11"}, "Aphis gossypii": {"test_system": "Aphis gossypii", "test": "Aphis gossypii test", "conditions": "500 ppm; dip treatment; cotton leaves", "description": "as §1\nCotton leaves (Gossypium hirsutum), which are heavily infested by the cotton aphid (Aphis gossypii), are treated by being dipped into the preparation of active compound of the desired concentration.\nas §4"}, "Phaedon cochleariae": {"test_system": "Phaedon cochleariae", "test": "Phaedon larvae test (dip treatment)", "conditions": "500 ppm, cabbage leaves", "description": "Phaedon Larvae Test (Dip Treatment) [[[…]]] To produce a suitable preparation of active compound, 1 part by weight of active compound is mixed with the stated amounts of solvent and emulsifier, and the concentrate is diluted with emulsifier-containing water to the desired concentration. Cabbage leaves (Brassica oleracea) are treated by being dipped into the preparation of active compound of the desired concentration and are populated with larvae of the mustard beetle (Phaedon cochleariae) while the leaves are still moist."}, "summer wheat": {"test_system": "summer wheat", "test": "Herbicidal post-emergence action, vessel trials with cereals in the greenhouse, use of safeners (Example N)", "conditions": "without safener", "description": "as §2\n(§12) Seeds of monocotyledonous and dicotyledonous weed and crop plants are placed into sandy loam in wood fibre pots or in plastic pots, covered with soil and cultivated in a greenhouse, during the vegetation period also outdoors outside of the greenhouse, under good growth conditions. 2-3 weeks after sowing, the test plants are treated at the one- to three-leaf stage. The test compounds, formulated as wettable powders (WP) or emulsifiable concentrates (EC) are, in various dosages with a water application rate of 300 l/ha (converted), with wetting agent (0.2 to 0.3%) added, sprayed onto the plants and the surface of the soil. 3-4 weeks after the treatment of the test plants, the effect of the preparations is rated visually in comparison to untreated controls (herbicidal effect in percent (%): 100% effect=the plants have died, 0% effect=like control plants).\n(§13) If it is additionally to be tested as to whether safeners can improve the plant compatibility of test substances in the case of crop plants, the following options are used for applying the safener: • seeds of the crop plants are, before sowing, dressed with the safener substance (the amount of safener is stated in percent, based on the weight of the seed) • before the application of the test substances, the crop plants are sprayed with the safener at a certain application rate per hectare (usually 1 day before the application of the test substances) • the safener is applied together with the test substance as a tank mix (the amount of safener is stated in g/ha or as a ratio, based on the herbicide).\n(§14) By comparing the effect of the test substances on crop plants without or with safener treatment, it is possible to assess the effect of the safener substance.\n(§15) Vessel Trials with Cereals in the Greenhouse\n(§16) Mefenpyr applied 1 day prior to the application of herbicide"}, "summer barley": {"test_system": "summer barley", "test": "Herbicidal post-emergence action, vessel trials with cereals in the greenhouse, use of safeners (Example N)", "conditions": "without safener", "description": "as §2, §12, §13, §14, §15, §16"}, "sugarbeets [13]": {"test_system": "sugarbeets", "test": "Post-emergence test (Example J)", "conditions": "greenhouse, 60 g of a.i./ha, after three weeks", "description": "as §8\n(§17) Test plants of a height of 5-15 cm are sprayed with the preparation of active compound such that the particular amounts of active compound desired are applied per unit area. The concentration of the spray liquor is chosen such that the particular amounts of active compound desired are applied in 1000 l of water/ha.\n(§18) After three weeks, the degree of damage in the plants is rated in % damage in comparison to the development of the untreated control.\nas §11"}, "Echinochloa [14]": {"test_system": "Echinochloa", "test": "Post-emergence test (Example J)", "conditions": "greenhouse, 60 g of a.i./ha, after three weeks", "description": "as §8, §17, §18, §11"}, "Lolium [15]": {"test_system": "Lolium", "test": "Post-emergence test (Example J)", "conditions": "greenhouse, 60 g of a.i./ha, after three weeks", "description": "as §8, §17, §18, §11"}}}
{"smiles": "CCc1cc(C)cc(Br)c1C1=C(O)C2(CCOCC2)NC1=O", "note": "[Example I-a-1]", "values": [{"measurement": "Effect in % after 14d", "setting": "Meloidogyne incognita", "result": 80, "unit": "%"}, {"measurement": "Kill rate in % after 5d", "setting": "Myzus persicae [1]", "result": 100, "unit": "%"}, {"measurement": "herbicidal effect in percent, Avena sativa", "setting": "Avena sativa [2]", "result": 100, "unit": "%"}, {"measurement": "herbicidal effect in percent, Lolium", "setting": "Lolium [3]", "result": 100, "unit": "%"}, {"measurement": "herbicidal effect in percent, Setaria", "setting": "Setaria [4]", "result": 80, "unit": "%"}, {"measurement": "Kill rate in % after 6d", "setting": "Myzus persicae [5]; 100 ppm", "result": 75, "unit": "%"}, {"measurement": "herbicidal effect in percent, Sinapis", "setting": "Sinapis", "result": 70, "unit": "%"}, {"measurement": "herbicidal effect in percent, Avena sativa", "setting": "Avena sativa [6]", "result": 70, "unit": "%"}, {"measurement": "herbicidal effect in percent, Stellaria", "setting": "Stellaria", "result": 100, "unit": "%"}, {"measurement": "herbicidal effect in percent, Lolium", "setting": "Lolium [7]", "result": 80, "unit": "%"}, {"measurement": "herbicidal effect in percent, Setaria", "setting": "Setaria [8]", "result": 90, "unit": "%"}]}
{"smiles": "CCc1cc(C)cc(Cl)c1C1=C(O)C2(CCC(OC)CC2)NC1=O", "note": "(single isomer, unassigned) [Example I-a-4]", "values": [{"measurement": "Kill rate in % after 7d", "setting": "Tetranychus urticae", "result": 99, "unit": "%"}, {"measurement": "% damage, sugarbeets", "setting": "sugarbeets [9]", "result": 0, "unit": "%"}, {"measurement": "% damage, Echinochloa", "setting": "Echinochloa [10]", "result": 80, "unit": "%"}, {"measurement": "% damage, Lolium", "setting": "Lolium [11]", "result": 100, "unit": "%"}, {"measurement": "% damage, Setaria", "setting": "Setaria [12]", "result": 100, "unit": "%"}, {"measurement": "Kill rate in % after 6d", "setting": "Aphis gossypii", "result": 80, "unit": "%"}, {"measurement": "Kill rate in % after 7d", "setting": "Phaedon cochleariae", "result": 100, "unit": "%"}, {"measurement": "summer wheat observed (%)", "setting": "summer wheat; 12.5 g of a.i./ha", "result": 50, "unit": "%"}, {"measurement": "summer wheat observed (%)", "setting": "summer wheat; 25 g of a.i./ha", "result": 98, "unit": "%"}, {"measurement": "summer barley observed (%)", "setting": "summer barley; 12.5 g of a.i./ha", "result": 10, "unit": "%"}, {"measurement": "summer barley observed (%)", "setting": "summer barley; 25 g of a.i./ha", "result": 30, "unit": "%"}, {"measurement": "summer barley observed (%)", "setting": "summer barley; 50 g of a.i./ha", "result": 97, "unit": "%"}, {"measurement": "Kill rate in % after 6d", "setting": "Myzus persicae [5]; 4 ppm", "result": 95, "unit": "%"}, {"measurement": "% damage, sugarbeets", "setting": "sugarbeets [13]", "result": 0, "unit": "%"}, {"measurement": "% damage, Echinochloa", "setting": "Echinochloa [14]", "result": 100, "unit": "%"}, {"measurement": "% damage, Lolium", "setting": "Lolium [15]", "result": 100, "unit": "%"}]}
